Measurements as given in publication PMC6958387, “Biological Evaluation of Arylsemicarbazone Derivatives as Potential Anticancer Agents” (Pharmaceuticals, 2019).

Experiments:
AURKB = target: T1, AURKB (Homo sapiens, UniProt Q96GD4); test: Kinase inhibition assay (ADP-Glo); type: biochemical; details: 10 µM ATP
T1 construct: purchased SignalChem A31-10G; host or cells: Sf9 insect cells (baculovirus)

[1] = system: Peripheral Blood Mononuclear Cells (PBMCs); test: MTT cytotoxicity in normal cells, 72 h; type: cell-based, human; details: Homo sapiens, PBMC, 72 h of incubation
Protocol: In order to evaluate the cytotoxic potential in normal cells, all the derivatives were tested against Peripheral Blood Mononuclear Cells (PBMCs) and the most promising compounds were again compounds 3c and 4a, which offered more selectivity against the cancer cells.
Mononuclear cells were obtained from the peripheral blood of healthy volunteers by heparin tube collection and isolated by Ficoll-Histopaque gradient centrifugation. After centrifugation, the cells were harvested, washed and resuspended in RPMI 1640 medium supplemented with 20% fetal bovine serum, 2 mM glutamine, 100 U/mL penicillin and 100 μg/mL streptomycin (Gibco™ Life Technologies, Waltham, MA, USA). The phytohemagglutinin mitogen 2% was also added into the culture medium. After that, using the neubauer chamber, the cells were counted and plated in a 96-well plate at a concentration of 10^6 cells/mL and then were maintained for overnight under incubation at 37 °C and 5% CO2 [65].
(§1) The evaluation of the cytotoxicity of the compounds was performed by the method of 3-(4,5-dimethyl-2-thiazolyl)-2,5-diphenyl-2H-tetrazolium bromide (MTT) (Sigma Aldrich Co., St. Louis, MO, USA). To perform the assay the cells were seeded in 96-well plates at the following concentrations: HL-60 and K562 (0.3 × 10^6 cells/mL); MOLT-4 and PBMC (10^6 cells/mL); NCI-H292, HT-29, HEp-2 e MCF-7 (10^5 cells/mL). Briefly, the compounds previously dissolved in DMSO (dimethylsulfoxide, Vetec, São Paulo, Brazil), were diluted in medium and added to each well at the desired concentrations. For the calculation of the concentration that inhibits 50% of cell growth (IC50) the compounds were serially diluted to obtain the final concentrations between 0.19–25 μg/mL. Doxorubicin was used as the standard in the concentration range between (0.078–10 μg/mL). After 72 h of contact of the cells with the compounds, it was added to each well 25 μL of MTT solution (5 mg/mL). Plates were left for another 3 h in incubator at 37 °C and at the end of that period the supernatant was aspirated. To perform the reading, 100 μL of DMSO was added in each well for the dissolution of the formazan crystals. The amount of formazan was measured by reading the plate at 560 nm absorbance. The IC50 was calculated from the nonlinear regression in the Prisma 7.0 software (GraphPad, San Diego, CA, USA). Each sample was tested in triplicate in three independent experiments.

CDK2/CyclinA = CDK2/CyclinA (Homo sapiens, UniProt P24941); test: Kinase inhibition assay (ADP-Glo); type: biochemical; details: 10 µM ATP
Protocol: HsCDK2/CyclinA (human, cyclin-dependent kinase-2, kindly provided by Dr. A. Echalier-Glazer, Leicester, UK) was assayed in buffer A with 0.8 µg/µL of histone H1 as substrate.

HEp-2 = test: MTT cytotoxicity, 72 h; type: cell-based, human; details: Homo sapiens, HEp-2, 72 h of incubation
Protocol: (§2) The cytotoxicity assessment was performed against three human cancer cell lines in suspension (K562, HL-60 and MOLT-4) and four adhered (HEp-2, NCI-H292, HT-29 and MCF-7).
(§3) The cells were obtained from the Cell Bank of Rio de Janeiro and maintained in the Laboratory of Cell Culture of the Department of Antibiotics of the Federal University of Pernambuco. The lines K562 (myeloblastic leukaemia), HL-60 (promyelocytic leukemia) and MOLT-4 (lymphoblastic leukemia) were cultured in RPMI 1640 medium and the lines HEp-2 (larynx carcinoma), NCI-H292 (lung carcinoma), HT-29 (colon adenocarcinoma) and MCF-7 (breast adenocarcinoma) were cultured in DMEM medium, supplemented with 10% fetal bovine serum, 2 mM glutamine, 100 U/mL penicillin and 100 μg/mL streptomycin (Gibco™ Life Technologies), at 37 °C and 5% CO2.
as §1

NCI-H292 = test: MTT cytotoxicity, 72 h; type: cell-based, human; details: Homo sapiens, NCI-H292, 72 h of incubation
Protocol: as §2, §3, §1

K562 = test: MTT cytotoxicity, 72 h; type: cell-based, human; details: Homo sapiens, K562, 72 h of incubation
Protocol: as §2, §3, §1

MOLT-4 = test: MTT cytotoxicity, 72 h; type: cell-based, human; details: Homo sapiens, MOLT-4, 72 h of incubation
Protocol: as §2, §3, §1

HT-29 = test: MTT cytotoxicity, 72 h; type: cell-based, human; details: Homo sapiens, HT-29, 72 h of incubation
Protocol: as §2, §3, §1

HL-60 = test: MTT cytotoxicity, 72 h; type: cell-based, human; details: for selectivity index (SI = IC50 PBMC/ IC50 cancer cells): HL-60 versus PBMC; for IC50: Homo sapiens, HL-60, MTT, 72 h of incubation
Protocol: as §2, §3, §1

MCF-7 = test: MTT cytotoxicity, 72 h; type: cell-based, human; details: Homo sapiens, MCF7, 72 h of incubation
Protocol: as §2, §3, §1

CK1δ/ε = test: Kinase inhibition assay (ADP-Glo); type: biochemical, Sus scrofa domesticus; details: 10 µM ATP
Protocol: SscCK1δ/ε (Sus scrofa domesticus, casein kinase 1δ/ε, affinity purified from porcine brain) was assayed in buffer A, with 0.022 μg/μL of the following peptide: RRKHAAIGSpAYSITA (“Sp” stands for phosphorylated serine) as CK1-specific substrate.

GSK3 α/β = test: Kinase inhibition assay (ADP-Glo); type: biochemical, Sus scrofa domesticus; details: 10 µM ATP
Protocol: SscGSK-3α/β (Sus scrofa domesticus, glycogen synthase kinase-3, affinity purified from porcine brain) was assayed in buffer A with 0.010 µg/µL of GS-1 peptide, a GSK-3-selective substrate ([…]pEDEEE, “Sp” stands for phosphorylated serine).

CLK1 = target: T2, CLK1 (Mus musculus, UniProt P22518); test: Kinase inhibition assay (ADP-Glo); type: biochemical; details: 10 µM ATP
T2 construct: made in house; host or cells: bacteria
Protocol: MmCLK1 (from Mus musculus, recombinant, expressed in bacteria) was assayed in buffer A with 0.027μg/µL of the following peptide: GRSRSRSRSRSR as substrate.

T1 sequence (Q96GD4 whole entry): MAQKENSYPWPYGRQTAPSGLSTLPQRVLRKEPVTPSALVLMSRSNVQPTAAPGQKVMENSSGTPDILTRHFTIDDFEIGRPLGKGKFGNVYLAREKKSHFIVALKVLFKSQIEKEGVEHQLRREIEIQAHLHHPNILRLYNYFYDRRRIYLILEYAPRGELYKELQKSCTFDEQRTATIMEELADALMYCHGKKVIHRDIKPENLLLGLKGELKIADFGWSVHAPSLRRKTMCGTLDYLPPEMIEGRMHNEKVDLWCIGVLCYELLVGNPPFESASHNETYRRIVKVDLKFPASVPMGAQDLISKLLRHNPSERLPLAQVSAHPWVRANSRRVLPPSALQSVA
T2 sequence (P22518 whole entry): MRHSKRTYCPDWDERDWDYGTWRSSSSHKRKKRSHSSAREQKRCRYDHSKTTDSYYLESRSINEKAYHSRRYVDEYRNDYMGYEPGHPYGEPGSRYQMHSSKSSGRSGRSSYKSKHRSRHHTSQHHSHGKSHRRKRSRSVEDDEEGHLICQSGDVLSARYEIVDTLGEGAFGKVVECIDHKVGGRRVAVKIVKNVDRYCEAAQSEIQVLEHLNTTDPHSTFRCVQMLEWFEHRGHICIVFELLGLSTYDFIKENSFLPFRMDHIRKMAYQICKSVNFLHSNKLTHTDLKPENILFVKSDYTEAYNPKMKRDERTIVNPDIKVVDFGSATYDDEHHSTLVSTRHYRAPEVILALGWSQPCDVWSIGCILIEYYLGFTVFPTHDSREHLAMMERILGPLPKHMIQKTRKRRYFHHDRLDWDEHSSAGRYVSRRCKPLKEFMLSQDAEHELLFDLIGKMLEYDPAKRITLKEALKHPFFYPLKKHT

SMILES	IC50 (AURKB)	IC50 [1]	IC50 (CDK2/CyclinA)	IC50 (HEp-2)	IC50 (NCI-H292)	IC50 (K562)	IC50 (MOLT-4)	IC50 (HT-29)	selectivity index (SI = IC50 PBMC/ IC50 cancer cells) (HL-60)	IC50 (HL-60)	IC50 (MCF-7)	IC50 (CK1δ/ε)	IC50 (GSK3 α/β)	IC50 (CLK1)
NC(=O)N/N=C/c1c(O)ccc2ccccc12 [Compound 3c, 2-Hydroxynaphthaldehyde Semicarbazone]	5.1 µM	82 ± 1.63 µM	0.53 µM	37.1 ± 1.5 µM	56.3 ± 3.05 µM	52.3 ± 1.15 µM	41 ± 0.7 µM	40.6 ± 1.02 µM	6.2	13.1 ± 0.62 µM	34 ± 1.06 µM	> 10 µM	> 10 µM	0.29 µM
Cc1ccc(C=NNC(N)=O)cc1 [Compound 3g, 4-Methylbenzaldehyde Semicarbazone]	> 10 µM	> 100 µM	> 10 µM	24.3 ± 0.97 µM	> 100 µM	33.3 ± 0.71 µM	56.4 ± 0.97 µM	> 100 µM		48.5 ± 1.63 µM	> 100 µM	> 10 µM	> 10 µM	> 10 µM
CCCCN(N=Cc1ccc([N+](=O)[O-])o1)C(N)=O [Compound 4a, 5-Nitro-2-(N^2-n-butyl)furfuraldehyde Semicarbazone]	> 10 µM	51.2 ± 0.75 µM	> 10 µM	34.4 ± 0.88 µM	37.9 ± 1.5 µM	24.2 ± 1.15 µM	19.5 ± 0.62 µM	36.3 ± 0.97 µM	4.5	11.4 ± 0.27 µM	33.6 ± 0.71 µM	0.76 µM	> 10 µM	> 10 µM
